These results are taken from patent publication US8410081B2, “Treatment of cystic fibrosis” (Academisch Medisch Centrum, priority 2006, dated 2013).

Assay [1] has as its system delF508-CFTR in ileal mucosa. As to the kind of experiment: intestine explants from ileal mucosa of delF508 mice (short-circuit current, Western blot, immunohistochemistry). The note with it: 10 nM. The protocol: To test the therapeutic potential of GBA2 inhibitors for CF further the effects of AMP-DNM on intestine explants from ileal mucosa of delF508 mice were analysed. The following assay was used:
Rotterdam delF508/delF508-CFTR mice (Cfr^tm1 Eur), their littermate controls (FVB inbred, 14-17 weeks old, weight between 20 and 30 g, kept on solid food in a pathogen-free environment) and Cftr-KO mice (Cftr^tm2 Cam) were used. Muscle-stripped ileal mucosa was incubated in William's E-Glutamax medium supplemented with insulin (10 μg/ml) and dexamethasone (20 μg/ml). At different time points, the compound was removed by repeated washings followed by short-circuit current (Isc) measurements in mini-Ussing chambers. Western blotting was as performed and immunoblots were probed with monoclonal mouse anti-CFTR antibody (10 μg/ml, IgG1 M3A7, Chemicon, USA). The protein levels were expressed as densitometry and percentage of controls. For immunohistochemistry, tissues were fixed in 4% (wt/vol) paraformaldehyde. Sections (5 μm) were stained with the antibody R3195 (1:500).

Assay [2] relates to delF508-CFTR containing epithelial CF cells (CF15). Kind of assay: cAMP-activated chloride current, perforated whole-cell patch-clamp / iodide efflux in CF15 cells. Type of assay: cell-based, human. Conditions: 10 nM; del F508-CFTR containing epithelial CF cells. From the text: The effects of AMP-DNM on cAMP-activated chloride current in delF508-CFTR containing epithelial CF cells were studied with the following assay:
Perforated whole-cell patch-clamp analysis was applied to CF15 cells (human nasal epithelial cell line obtained from delF508 homozygous patient). Patch electrodes (GC150-TF10, Harvard Apparatus, USA) filled with intracellular solution (resistances of 3-4 MΩ) were connected to the RK-400 amplifier (Biologic, France) through an Ag/AgCl pellet. External solution (mM): 145 NaCl, 4 CsCl, 1 MgCl2, 1 CaCl2, 5 d-glucose, 10 TES (pH 7.4, 315 mOsm). Intra-pipette solution (mM): 113 l-aspartic acid, 113 CsOH, 27 CsCl, 1 NaCl, 1 EGTA, 1 MgCl2, 3 Mg-ATP (ex-temporane), 10 TES (pH 7.2 with CsOH, 285 mOsm) and amphotericin B (100 μg/ml) renewed every 2 h. Only cells with input resistance […] were analysed. The mean access resistance and whole cell capacitance were 12±0.6 MΩ and 35±4.3 pF (n=44). Currents were obtained in response to voltage steps from −80 to +80 mV in 20 mV increment. Data were collected using pClamp 6.0.3 package software (Axon Instruments, USA). CFTR Cl^− channel activity was assayed on a cell population by the iodide (^125I) efflux technique.

Assay [3] concerns the target T1, glucosylceramide synthase (GCS) (Homo sapiens, UniProt Q16739).
T1 sequence (Q16739 1-394): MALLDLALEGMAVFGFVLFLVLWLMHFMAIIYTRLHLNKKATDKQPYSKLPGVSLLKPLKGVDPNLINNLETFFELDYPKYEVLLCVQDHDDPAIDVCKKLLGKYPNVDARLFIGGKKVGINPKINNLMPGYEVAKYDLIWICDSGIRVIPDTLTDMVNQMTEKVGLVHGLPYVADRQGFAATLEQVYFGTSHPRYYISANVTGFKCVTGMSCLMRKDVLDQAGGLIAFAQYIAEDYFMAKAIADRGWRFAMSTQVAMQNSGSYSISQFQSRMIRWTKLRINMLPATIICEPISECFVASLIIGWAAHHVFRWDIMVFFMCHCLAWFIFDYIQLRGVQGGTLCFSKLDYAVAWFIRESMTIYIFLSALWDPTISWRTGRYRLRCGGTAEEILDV
Kind of assay: glucosylceramide synthase (GCS) IC50 determination. It is filed as biochemical. Conditions: for IC50: enzyme preparations exposed to dilutions of inhibitor.

In assay [4] the target is T2, GBA2 (non-lysosomal glucosylceramidase) (Homo sapiens, UniProt Q9HCG7).
T2 construct: host or cells: GBA2 containing membranes
T2 sequence (Q9HCG7 1-927): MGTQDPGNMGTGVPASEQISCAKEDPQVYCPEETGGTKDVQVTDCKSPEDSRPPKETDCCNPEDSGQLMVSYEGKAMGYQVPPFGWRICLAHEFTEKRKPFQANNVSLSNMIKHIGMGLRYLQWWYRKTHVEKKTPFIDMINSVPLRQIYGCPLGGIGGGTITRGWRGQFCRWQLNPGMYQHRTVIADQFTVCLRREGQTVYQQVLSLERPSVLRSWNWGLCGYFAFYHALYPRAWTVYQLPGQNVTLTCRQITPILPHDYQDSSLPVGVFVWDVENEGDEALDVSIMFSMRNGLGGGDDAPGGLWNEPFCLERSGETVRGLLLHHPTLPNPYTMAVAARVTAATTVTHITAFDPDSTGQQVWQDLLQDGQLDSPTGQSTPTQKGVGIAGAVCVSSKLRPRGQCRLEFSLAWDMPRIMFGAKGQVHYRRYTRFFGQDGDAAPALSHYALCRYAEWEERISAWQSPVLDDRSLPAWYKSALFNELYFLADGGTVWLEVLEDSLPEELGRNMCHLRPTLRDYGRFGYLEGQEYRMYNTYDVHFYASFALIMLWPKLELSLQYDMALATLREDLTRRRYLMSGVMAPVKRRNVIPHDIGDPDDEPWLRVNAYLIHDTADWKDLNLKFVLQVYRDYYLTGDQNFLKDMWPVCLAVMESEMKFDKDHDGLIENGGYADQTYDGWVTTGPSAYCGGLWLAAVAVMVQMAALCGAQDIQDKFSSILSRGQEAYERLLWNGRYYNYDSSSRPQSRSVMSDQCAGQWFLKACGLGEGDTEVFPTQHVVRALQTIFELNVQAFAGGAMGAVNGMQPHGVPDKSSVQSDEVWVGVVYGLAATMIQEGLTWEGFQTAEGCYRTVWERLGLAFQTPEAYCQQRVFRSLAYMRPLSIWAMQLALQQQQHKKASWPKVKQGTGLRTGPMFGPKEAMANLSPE
Kind of assay: non-lysosomal glucosylceramidase (GBA2) IC50 determination. It is filed as biochemical. Conditions: enzyme preparations exposed to dilutions of inhibitor.

The structures appear in SMILES notation. Where only a bound is given, the exact number is not on record here.

`OC[C@@H]1[C@@H](O)[C@H](O)[C@@H](O)CN1CCCCCOCC12CC3CC(CC(C3)C1)C2` [AMP-DNM, N-[5′-(adamantan-1′-yl-methoxy)-pentan]-1-deoxynojirimycin]: in assay [1], the “rescue of delF508-CFTR in intestinal crypts of ileal mucosa” value was “rescues a mature and functional delF508-CFTR”. The “restoration of cAMP-activated chloride current, % of normal levels” value in assay [2] is given as “up to 30%”.

For the compound `OC[C@@H]1[C@@H](O)[C@H](O)[C@@H](O)CN1CCCCOCC12CC3CC(CC(C3)C1)C2` [N-[5′-(adamantan-1′-yl-methoxy)-butan]-1-deoxynojirimycin], the values for the IC50 in assay [3] and in assay [4] were 10 µM and 0.002 µM, respectively.

With `CC(C)(C)COCCCCCN1C[C@H](O)[C@@H](O)[C@H](O)[C@H]1CO` [N-[5′-neopentyloxy-pentan]-1-deoxynojirimycin], in assay [3], the “inhibition of GCS (in words)” value is reported as “hardly inhibits GCS” and the half-inhibitory concentration (IC50) is more than 100 µM.

On to `OC[C@@H]1[C@@H](O)[C@H](O)[C@@H](O)CN1CCCCCCC12CC3CC(CC(C3)C1)C2` [N-[6′-adamantyl-hexan]-1-deoxynojirimycin], for which the IC50 was 7.5 µM in assay [3] and 0.001 µM in assay [4].
